From ChEMBL document CHEMBL6109129, “Discovery of Conformationally Constrained Dihydro Benzo-Indole Derivatives as Metallo-β-Lactamase Inhibitors to Tackle Multidrug-Resistant Bacterial Infections” (J Med Chem, 2025)

Columns and labels:
Escherichia coli [1] = assay: Synergistic antibacterial activity against carbapenem-resistant Escherichia coli BAA-2469 assessed as reduction in microbial growth at 8 ug/ml measured after 16 to 18 hrs in presence of meropenem by microbial dilution method; assay type: functional; details: dose 8 µg/ml, time 16-18 hrs
Escherichia coli [2] = assay: Synergistic antibacterial activity against carbapenem-resistant Escherichia coli 565988 assessed as reduction in microbial growth at 4 ug/ml measured after 16 to 18 hrs in presence of meropenem by microbial dilution method; assay type: functional; details: dose 4 µg/ml, time 16-18 hrs
Escherichia coli [3] = assay: Synergistic antibacterial activity against carbapenem-resistant Escherichia coli BAA-2469 assessed as reduction in microbial growth at 0.5 ug/ml measured after 16 to 18 hrs in presence of imipenem by microbial dilution method; assay type: functional; details: dose 0.5 µg/ml, time 16-18 hrs
[4] = system: Klebsiella pneumoniae subsp. pneumoniae; assay: Synergistic antibacterial activity against carbapenem-resistant Klebsiella pneumoniae subsp. pneumoniae BAA-2472 assessed as reduction in microbial growth at 0.5 ug/ml measured after 16 to 18 hrs in presence of meropenem by microbial dilution method; assay type: functional; details: dose 0.5 µg/ml, time 16-18 hrs
Enterobacter cloacae [5] = assay: Synergistic antibacterial activity against carbapenem-resistant Enterobacter cloacae BAA-2468 assessed as reduction in microbial growth at 16 ug/ml measured after 16 to 18 hrs in presence of imipenem by microbial dilution method; assay type: functional; details: dose 16 µg/ml, time 16-18 hrs
Escherichia coli [6] = assay: Synergistic antibacterial activity against carbapenem-resistant Escherichia coli 565988 assessed as reduction in microbial growth at 16 ug/ml measured after 16 to 18 hrs in presence of meropenem by microbial dilution method; assay type: functional; details: dose 16 µg/ml, time 16-18 hrs
Klebsiella pneumoniae [7] = assay: Synergistic antibacterial activity against carbapenem-resistant Klebsiella pneumoniae BAA-2473 assessed as reduction in microbial growth at 0.5 ug/ml measured after 16 to 18 hrs in presence of imipenem by microbial dilution method; assay type: functional; details: dose 0.5 µg/ml, time 16-18 hrs
Escherichia coli [8] = assay: Synergistic antibacterial activity against carbapenem-resistant Escherichia coli 541588 assessed as reduction in microbial growth at 4 ug/ml measured after 16 to 18 hrs in presence of meropenem by microbial dilution method; assay type: functional; details: dose 4 µg/ml, time 16-18 hrs
Escherichia coli [9] = assay: Synergistic antibacterial activity against carbapenem-resistant Escherichia coli 567975 assessed as reduction in microbial growth at 4 ug/ml measured after 16 to 18 hrs in presence of meropenem by microbial dilution method; assay type: functional; details: dose 4 µg/ml, time 16-18 hrs
[10] = Cytotoxicity in HEK293 cells assessed as inhibition of cell growth measured after 24 hrs by MTT assay; assay type: toxicity, cell-based; details: human
Klebsiella pneumoniae [11] = assay: Synergistic antibacterial activity against carbapenem-resistant Klebsiella pneumoniae 552439 assessed as reduction in microbial growth at 4 ug/ml measured after 16 to 18 hrs in presence of meropenem by microbial dilution method; assay type: functional; details: dose 4 µg/ml, time 16-18 hrs
Klebsiella pneumoniae [12] = assay: Synergistic antibacterial activity against carbapenem-resistant Klebsiella pneumoniae BAA-2473 assessed as reduction in microbial growth at 16 ug/ml measured after 16 to 18 hrs in presence of imipenem by microbial dilution method; assay type: functional; details: dose 16 µg/ml, time 16-18 hrs
Escherichia coli [13] = assay: Synergistic antibacterial activity against carbapenem-resistant Escherichia coli BAA-2469 assessed as reduction in microbial growth at 0.5 ug/ml measured after 16 to 18 hrs in presence of meropenem by microbial dilution method; assay type: functional; details: dose 0.5 µg/ml, time 16-18 hrs
[14] = target: Metallo-beta-lactamase type 2 (Bacteria) (UniProt C7C422); assay: Induction of thermal stabilization of NDM-1 (unknown origin) assessed as melting temperature at 50 uM by differential scanning fluorimetry analysis
[15] = system: Klebsiella pneumoniae subsp. pneumoniae; assay: Synergistic antibacterial activity against carbapenem-resistant Klebsiella pneumoniae subsp. pneumoniae BAA-2470 assessed as reduction in microbial growth at 8 ug/ml measured after 16 to 18 hrs in presence of imipenem by microbial dilution method; assay type: functional; details: dose 8 µg/ml, time 16-18 hrs
Escherichia coli [16] = assay: Synergistic antibacterial activity against carbapenem-resistant Escherichia coli 571307 assessed as reduction in microbial growth at 16 ug/ml measured after 16 to 18 hrs in presence of imipenem by microbial dilution method; assay type: functional; details: dose 16 µg/ml, time 16-18 hrs
[17] = Metabolic stability in human liver microsomes assessed as parent compound remaining at 1 uM measured at 60 mins in presence of NADPH by LC-MS/MS analysis; assay type: ADME, Microsome; details: read-out: Stability
Klebsiella pneumoniae [18] = assay: Synergistic antibacterial activity against carbapenem-resistant Klebsiella pneumoniae 538961 assessed as reduction in microbial growth at 16 ug/ml measured after 16 to 18 hrs in presence of meropenem by microbial dilution method; assay type: functional; details: dose 16 µg/ml, time 16-18 hrs
Klebsiella pneumoniae [19] = assay: Synergistic antibacterial activity against carbapenem-resistant Klebsiella pneumoniae 552439 assessed as reduction in microbial growth at 16 ug/ml measured after 16 to 18 hrs in presence of imipenem by microbial dilution method; assay type: functional; details: dose 16 µg/ml, time 16-18 hrs
Escherichia coli [20] = assay: Synergistic antibacterial activity against carbapenem-resistant Escherichia coli 541588 assessed as reduction in microbial growth at 16 ug/ml measured after 16 to 18 hrs in presence of imipenem by microbial dilution method; assay type: functional; details: dose 16 µg/ml, time 16-18 hrs
[21] = Inhibition of IMP-1 (unknown origin) using FC5 as substrate preincubated for 10 mins followed by substrate addition and measured immediately by fluorescence based analysis; set-up: species or system Bacteria
[22] = system: Klebsiella pneumoniae subsp. pneumoniae; assay: Synergistic antibacterial activity against carbapenem-resistant Klebsiella pneumoniae subsp. pneumoniae BAA-2472 assessed as reduction in microbial growth at 8 ug/ml measured after 16 to 18 hrs in presence of meropenem by microbial dilution method; assay type: functional; details: dose 8 µg/ml, time 16-18 hrs
[23] = Metabolic stability in mouse liver microsomes assessed as parent compound remaining at 1 uM measured at 60 mins in presence of NADPH by LC-MS/MS analysis; assay type: ADME, Microsome; details: read-out: Stability
Escherichia coli [24] = assay: Synergistic antibacterial activity against carbapenem-resistant Escherichia coli BAA-2471 assessed as reduction in microbial growth at 0.5 ug/ml measured after 16 to 18 hrs in presence of meropenem by microbial dilution method; assay type: functional; details: dose 0.5 µg/ml, time 16-18 hrs
Escherichia coli [25] = assay: Synergistic antibacterial activity against carbapenem-resistant Escherichia coli BAA-2471 assessed as reduction in microbial growth at 16 ug/ml measured after 16 to 18 hrs in presence of meropenem by microbial dilution method; assay type: functional; details: dose 16 µg/ml, time 16-18 hrs
Escherichia coli [26] = assay: Synergistic antibacterial activity against carbapenem-resistant Escherichia coli 565988 assessed as reduction in microbial growth at 16 ug/ml measured after 16 to 18 hrs in presence of imipenem by microbial dilution method; assay type: functional; details: dose 16 µg/ml, time 16-18 hrs
[27] = target: Metallo-beta-lactamase type 2 (Bacteria) (UniProt C7C422); assay: Induction of thermal stabilization of NDM-1 (unknown origin) assessed as melting temperature at 3.12 uM by differential scanning fluorimetry analysis
Escherichia coli [28] = assay: Synergistic antibacterial activity against carbapenem-resistant Escherichia coli 541588 assessed as reduction in microbial growth at 16 ug/ml measured after 16 to 18 hrs in presence of meropenem by microbial dilution method; assay type: functional; details: dose 16 µg/ml, time 16-18 hrs
Escherichia coli [29] = assay: Synergistic antibacterial activity against carbapenem-resistant Escherichia coli 567975 assessed as reduction in microbial growth at 16 ug/ml measured after 16 to 18 hrs in presence of meropenem by microbial dilution method; assay type: functional; details: dose 16 µg/ml, time 16-18 hrs
Klebsiella pneumoniae [30] = assay: Synergistic antibacterial activity against carbapenem-resistant Klebsiella pneumoniae 565345 assessed as reduction in microbial growth at 16 ug/ml measured after 16 to 18 hrs in presence of meropenem by microbial dilution method; assay type: functional; details: dose 16 µg/ml, time 16-18 hrs
Enterobacter cloacae [31] = assay: Synergistic antibacterial activity against carbapenem-resistant Enterobacter cloacae BAA-2468 assessed as reduction in microbial growth at 8 ug/ml measured after 16 to 18 hrs in presence of meropenem by microbial dilution method; assay type: functional; details: dose 8 µg/ml, time 16-18 hrs

Sequence of Metallo-beta-lactamase type 2 (Bacteria) (C7C422 whole entry): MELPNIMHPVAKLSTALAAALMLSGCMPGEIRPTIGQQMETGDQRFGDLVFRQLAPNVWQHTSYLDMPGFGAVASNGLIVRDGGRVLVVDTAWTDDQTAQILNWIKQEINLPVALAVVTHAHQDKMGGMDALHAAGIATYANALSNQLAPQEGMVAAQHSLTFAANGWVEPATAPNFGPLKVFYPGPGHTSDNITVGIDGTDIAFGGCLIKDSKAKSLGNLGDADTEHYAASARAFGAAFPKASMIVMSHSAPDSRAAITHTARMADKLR

In the case of `COc1ccc(Cl)cc1-c1c(C(=O)O)[nH]c2c1CCc1ccccc1-2`, the MIC (Escherichia coli [1]) is reported as 4 µg/mL, the MIC (Escherichia coli [2]) is reported as 1 µg/mL and the MIC (Escherichia coli [3]) is reported as 32 µg/mL. For the same compound, the MIC [4] was greater than 64 µg/mL, the MIC (Enterobacter cloacae [5]) was 32 µg/mL and the MIC (Escherichia coli [6]) was less than 0.5 µg/mL. It also gave an MIC (Klebsiella pneumoniae [7]) of 64 µg/mL, an MIC (Escherichia coli [8]) of 8 µg/mL and an MIC (Escherichia coli [9]) of 1 µg/mL. The IC50 at 24 h [10] was greater than 200000 nM, the MIC (Klebsiella pneumoniae [11]) was 16 µg/mL and the MIC (Klebsiella pneumoniae [12]) was 8 µg/mL. For the same compound, the MIC (Escherichia coli [13]) was 16 µg/mL, the Tm [14] was 20 °C and the MIC [15] was 2 µg/mL. It also gave an MIC (Escherichia coli [16]) of 2 µg/mL, a remaining at 1 h, 1 µM [17] of 56% and an MIC (Klebsiella pneumoniae [18]) of 4 µg/mL. The MIC (Klebsiella pneumoniae [19]) was 1 µg/mL, the MIC (Escherichia coli [20]) was 1 µg/mL and the IC50 [21] was 14 nM. It also gave an MIC [22] of 64 µg/mL, a remaining at 1 h, 1 µM [23] of 44.2% and an MIC (Escherichia coli [24]) of 64 µg/mL. The MIC (Escherichia coli [25]) was 16 µg/mL, the MIC (Escherichia coli [26]) was less than 0.5 µg/mL and the Tm [27] was 14 °C. For the same compound, the MIC (Escherichia coli [28]) was 1 µg/mL, the MIC (Escherichia coli [29]) was less than 0.5 µg/mL and the MIC (Klebsiella pneumoniae [30]) was 1 µg/mL. It also gave an MIC (Enterobacter cloacae [31]) of 8 µg/mL.
